Where two headings read alike, the source gives them in different places.
What was measured:
γD-crystallin = molecular target: T1, γD-crystallin (Homo sapiens, UniProt P07320); experiment: Dynamic light scattering (DLS) of γD-crystallin, hydrodynamic radius of monomer and aggregate; type: biochemical; settings: γD modified with the agent
T1 construct: 6xHis (N); made in house; host or cells: M15pRep E. coli (pQe1 plasmid from King Labs, MIT)
T1 sequence (P07320 1-174): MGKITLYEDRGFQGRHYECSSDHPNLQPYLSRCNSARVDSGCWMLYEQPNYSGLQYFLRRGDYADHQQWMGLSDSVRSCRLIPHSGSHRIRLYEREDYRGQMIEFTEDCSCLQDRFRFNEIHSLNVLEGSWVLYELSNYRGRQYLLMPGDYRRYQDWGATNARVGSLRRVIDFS
Protocol: (§1) The scattering wave vector is defined as q=4πn sin (θ/2)/λ, where θ is the scattering angle, and λ=514.5, the wavelength of the argon laser in vacuum, and n is 1.33, the refractive index of water. The temperature of the sample was held at constant temperature of 4 to 37±0.1° C. by a circulating water bath. The correlation function was analyzed using CONTIN analysis [NT] times for the correlation functions at measured angles. […] The delay times (τ) were converted to Γ and graphed versus q^2. The slope of the fitted line is the diffusion coefficient (D). […] All solutions were filtered with 0.22 μm hydrophobic PVDF membranes (Fisher Scientific) into 10 mm diameter borosilicate glass tubes and sealed. Solutions were allowed to equilibrate for thirty minutes prior to measuring light scattering. […] The pH and salt concentration were adjusted via overnight dialysis at 4° C. and their final concentration adjusted to 1.0 g/L. […] The scattering wave vector is defined as q=4πn sin (θ/2)/λ, where θ is the scattering angle, and λ=514.5, the wavelength of the argon laser in vacuum, and n is 1.33, the refractive index of water. The temperature of the sample was held at constant temperature of 4 to 37±0.1° C. by a circulating water bath. The correlation function was analyzed using CONTIN analysis [NT] times for the correlation functions at measured angles. […] The delay times (τ) were converted to Γ and graphed versus q^2. The slope of the fitted line is the diffusion coefficient (D). […] All solutions were filtered with 0.22 μm hydrophobic PVDF membranes (Fisher Scientific) into 10 mm diameter borosilicate glass tubes and sealed. Solutions were allowed to equilibrate for thirty minutes prior to measuring light scattering.

γS-crystallin = molecular target: T2, γS-crystallin (Homo sapiens, UniProt P22914); experiment: Dynamic light scattering (DLS) of γS-crystallin, hydrodynamic radius of monomer and aggregate; type: biochemical; settings: γS modified with the agent
T2 construct: 6xHis (N); made in house; host or cells: M15pRep E. coli (pQe1 plasmid from King Labs, MIT)
T2 sequence (P22914 1-178): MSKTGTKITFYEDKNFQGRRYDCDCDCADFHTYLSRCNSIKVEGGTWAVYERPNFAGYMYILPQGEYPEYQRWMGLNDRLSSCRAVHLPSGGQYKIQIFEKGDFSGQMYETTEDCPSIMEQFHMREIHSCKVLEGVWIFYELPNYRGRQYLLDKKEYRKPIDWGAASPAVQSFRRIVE
Protocol: as §1

human cadaver lenses = test system: human cadaver lenses; design: key to LOCS III grade, Cortical / LOCS III grade, NO / LOCS III grade, PS / LOCS III grade, NC: LOCS III cataract grade on a decimal scale (higher = more severe)
Protocol: Within about 24 hours of death, the eyeball is harvested, sliced and the vitreous is removed. The lens is excised and placed in an incubation medium called Optisol®. Optisol® is a corneal storage medium containing chondroitin sulfate, dextran 40, optisol base powder, sodium bicarbonate, gentamycin, amino acids, sodium pyruvate, L-glutamine, 2-mercaptoethanol and purified water. OD is the right eye and OS is the left eye.
Lens opacities are classified according to the LOCS III system. LOCS III measurements are taken with a slit lamp microscope. The LOCS III contains an expanded set of standards selected from the Longitudinal Study of Cataract slide library at the Center for Clinical Cataract Research, Boston, Mass. It includes six slit lamp images for grading nuclear color (NC) and nuclear opalescence (NO), five retroillumination images for grading cortical cataract (C), and five retroillumination images for grading posterior subcapsular (P) cataract. Cataract severity is graded on a decimal scale, with the standards have regularly spaced intervals on the scale.
In all cases, the control is Optisol® medium. The remaining data points are for isolated human cadaver lenses treated with CAPEG4 solutions with Optisol®.

[1] = fast mode (monomer, first Rh column), 22° C.
[2] = fast mode (monomer, first Rh column), 22° C., listed as CAPEG
[3] = 10 mg/mL CAPEG4 (OD), 0 HR, Table 7
[4] = 10 mg/mL CAPEG4, 24 HR, Table 7
[5] = 10 mg/mL CAPEG4, 72 HR, Table 7
[6] = 50 mg/mL CAPEG4 (OD), 0 HR, Table 8
[7] = 50 mg/mL CAPEG4, 24 HR, Table 8
[8] = 50 mg/mL CAPEG4, 72 HR, Table 8
[9] = 100 mg/mL CAPEG4 (OD), 0 HR, Table 9
[10] = 100 mg/mL CAPEG4 (OD), 0 HR, Table 10 (repeat, different eyes)
[11] = 100 mg/mL CAPEG4, 24 HR, Table 9
[12] = 100 mg/mL CAPEG4, 24 HR, Table 10 (repeat, different eyes)
[13] = 100 mg/mL CAPEG4, 72 HR, Table 9
[14] = 100 mg/mL CAPEG4, 72 HR, Table 10 (repeat, different eyes)
[15] = 200 mg/mL CAPEG4 (OD), 0 HR, Table 11
[16] = 200 mg/mL CAPEG4 (OD), 0 HR, Table 12 (second pair of lenses)
[17] = 200 mg/mL CAPEG4, 24 HR, Table 11
[18] = 200 mg/mL CAPEG4, 24 HR, Table 12 (second pair of lenses)
[19] = 200 mg/mL CAPEG4, 72 HR, Table 11
[20] = 200 mg/mL CAPEG4, 72 HR, Table 12 (second pair of lenses)

SMILES: NCCOCCOCCOCCOCCC(=O)O [CAPEG4]
- Rh (γD-crystallin; fast mode (monomer), 37° C.): 2.8 nm
- Rh (γD-crystallin; [1]): 2.9 nm
- Rh (γD-crystallin; [2]): 2.8 nm
- Rh (γS-crystallin; fast mode (monomer), 37° C.): 3 nm
- Rh (γS-crystallin; fast mode (monomer), 37° C., listed as CAPEG): 2.9 nm
- Rh (γS-crystallin; [1]): 2.8 nm
- Rh (γS-crystallin; [2]): 2.9 nm
- observation on lens capsule and lens volume (human cadaver lenses): wrinkling of the lens capsule was observed and subjectively exhibited some loss of lens volume
- change of LOCS III grades versus control (human cadaver lenses; 10 mg/mL CAPEG4): no significant change in the experimental versus control samples
- LOCS III grade, Cortical (human cadaver lenses; [3]): 1.0
- LOCS III grade, NC (human cadaver lenses; [3]): 5.0
- LOCS III grade, NO (human cadaver lenses; [3]): 5.0
- LOCS III grade, PS (human cadaver lenses; [3]): 0.9
- LOCS III grade, Cortical (human cadaver lenses; [4]): 1.0
- LOCS III grade, NC (human cadaver lenses; [4]): 5.0
- LOCS III grade, NO (human cadaver lenses; [4]): 5.0
- LOCS III grade, PS (human cadaver lenses; [4]): 0.9
- LOCS III grade, Cortical (human cadaver lenses; [5]): 0.9
- LOCS III grade, NC (human cadaver lenses; [5]): 5.0
- LOCS III grade, NO (human cadaver lenses; [5]): 5.0
- LOCS III grade, PS (human cadaver lenses; [5]): 0.9
- LOCS III grade, Cortical (human cadaver lenses; [6]): 1.0
- LOCS III grade, NC (human cadaver lenses; [6]): 1.7
- LOCS III grade, NO (human cadaver lenses; [6]): 2.0
- LOCS III grade, PS (human cadaver lenses; [6]): 1.1
- LOCS III grade, Cortical (human cadaver lenses; [7]): 1.0
- LOCS III grade, NC (human cadaver lenses; [7]): 1.7
- LOCS III grade, NO (human cadaver lenses; [7]): 2.0
- LOCS III grade, PS (human cadaver lenses; [7]): 0.9
- LOCS III grade, Cortical (human cadaver lenses; [8]): 1.0
- LOCS III grade, NC (human cadaver lenses; [8]): 1.9
- LOCS III grade, NO (human cadaver lenses; [8]): 2.0
- LOCS III grade, PS (human cadaver lenses; [8]): 0.9
- difference of cortical cataracts and NO versus controls (human cadaver lenses; 50 mg/mL CAPEG4, up to 72 hours): no significant differences between the controls and 50 mg/mL incubation
- LOCS III grade, Cortical (human cadaver lenses; [9]): 3.0
- LOCS III grade, NC (human cadaver lenses; [9]): 1.3
- LOCS III grade, NO (human cadaver lenses; [9]): 1.8
- LOCS III grade, PS (human cadaver lenses; [9]): 0.9
- LOCS III grade, Cortical (human cadaver lenses; [10]): 3.0
- LOCS III grade, NC (human cadaver lenses; [10]): 3.0
- LOCS III grade, NO (human cadaver lenses; [10]): 3.0
- LOCS III grade, PS (human cadaver lenses; [10]): 1.8
- LOCS III grade, Cortical (human cadaver lenses; [11]): 2.9
- LOCS III grade, NC (human cadaver lenses; [11]): 1.1
- LOCS III grade, NO (human cadaver lenses; [11]): 1.2
- LOCS III grade, PS (human cadaver lenses; [11]): 0.9
- LOCS III grade, Cortical (human cadaver lenses; [12]): 2.6
- LOCS III grade, NC (human cadaver lenses; [12]): 3.0
- LOCS III grade, NO (human cadaver lenses; [12]): 3.0
- LOCS III grade, PS (human cadaver lenses; [12]): 1.5
- LOCS III grade, Cortical (human cadaver lenses; [13]): 2.7
- LOCS III grade, NC (human cadaver lenses; [13]): 1.1
- LOCS III grade, NO (human cadaver lenses; [13]): 1.2
- LOCS III grade, PS (human cadaver lenses; [13]): 0.9
- LOCS III grade, Cortical (human cadaver lenses; [14]): 2.0
- LOCS III grade, NC (human cadaver lenses; [14]): 3.2
- LOCS III grade, NO (human cadaver lenses; [14]): 3.0
- LOCS III grade, PS (human cadaver lenses; [14]): 1.0
- LOCS III grade, Cortical (human cadaver lenses; [15]): 2.5
- LOCS III grade, NC (human cadaver lenses; [15]): 2.4
- LOCS III grade, NO (human cadaver lenses; [15]): 2.4
- LOCS III grade, PS (human cadaver lenses; [15]): 0
- LOCS III grade, Cortical (human cadaver lenses; [16]): 1.3
- LOCS III grade, NC (human cadaver lenses; [16]): 2.8
- LOCS III grade, NO (human cadaver lenses; [16]): 3.2
- LOCS III grade, PS (human cadaver lenses; [16]): 0.9
- LOCS III grade, Cortical (human cadaver lenses; [17]): 2.2
- LOCS III grade, NC (human cadaver lenses; [17]): 2.4
- LOCS III grade, NO (human cadaver lenses; [17]): 2.4
- LOCS III grade, PS (human cadaver lenses; [17]): 0
- LOCS III grade, Cortical (human cadaver lenses; [18]): 1.0
- LOCS III grade, NC (human cadaver lenses; [18]): 2.8
- LOCS III grade, NO (human cadaver lenses; [18]): 3.2
- LOCS III grade, PS (human cadaver lenses; [18]): 0.9
- LOCS III grade, Cortical (human cadaver lenses; [19]): 2.0
- LOCS III grade, NC (human cadaver lenses; [19]): 2.4
- LOCS III grade, NO (human cadaver lenses; [19]): 2.4
- LOCS III grade, PS (human cadaver lenses; [19]): 0
- LOCS III grade, Cortical (human cadaver lenses; [20]): 0.9
- LOCS III grade, NC (human cadaver lenses; [20]): 2.8
- LOCS III grade, NO (human cadaver lenses; [20]): 3.2
- LOCS III grade, PS (human cadaver lenses; [20]): 0.9
- cause of reduction in cataracts (agent versus pH of medium) (human cadaver lenses; compared with Optisol lowered to the same pH with citric acid): due to the CAPEG4 and not a pH effect of the medium

Source: patent US10413529B2, “Methods of inhibiting cataracts and presbyopia” (UNIVERSITY OF MASSACHUSETTS, priority 2013, dated 2019)
